Source: patent publication US10292992B2, “Selective high-affinity polydentate ligands and methods of making such” (LAWRENCE LIVERMORE NATIONAL SECURITY, LLC, priority 2008, dated 2019)
pIC50: −log10 of the molar value. Entries after “also recorded” stand apart in the source; their conditions may differ. Where two headings read alike, the source gives them in different places.

Experiments:
[1] = Stability in human plasma by cellulose acetate electrophoresis; assay type: in vitro ADME; details: human plasma at 37° C. for 24 hrs; one preliminary CAE experiment
Description: Two forms of the free amine SHAL, (DvLPBaPPP)2LLA, and the hexa-arginine analog, (DvLPBaPPP)2LArg6AcLLA, were synthesized in multi-milligram amounts and purified by high performance liquid chromatography (HPLC). A biotin was attached to the ε-amino group of the terminal amine (A) on both (DvLPBaPPP)2LLA and (DvLPBaPPP)2LArg6AcLLA to produce biotinylated forms for use in cell and protein binding experiments. 1,4,7,10-tetraazacyclododecane-1,4,7,10-tetraacetic acid (DOTA) was attached to both (DvLPBaPPP)2LLA and (DvLPBaPPP)2LArg6AcLLA at the same site to enable the SHALs to be labeled with ^111In. The DOTA SHAL (DvLPBaPPP)2LLDo (FIG. 25A) and the hexa-arginine SHAL analog (DvLPBaPPP)2LArg6AcLLDo (FIG. 25B) were labeled with ^111In at high efficiency (>90%) with specific activities ranging from 70-85 μCi/μg SHAL. […] D-isomers of arginine incorporated during the synthesis of the hexa-arginine sequence in (DvLPBaPPP)2LArg6AcLLDo were used to minimize the proteolytic susceptibility of the peptide.

Raji cells = test: 3-D confocal microscopy, Raji cells; assay type: cell-based, human; details: biotinylated reagent, 1 hr, 10 μM SHAL or 10 nM chLym-1
Description: SHAL binding and internalization by Raji and Jurkat's cells was assessed using the method described previously by O'Donnell et al. (O'Donnell et al. (1998) Prostate 37:91-97). Experiments were conducted comparing the binding of (DvLPBaPPP)2LLDo (the parent SHAL), its hexa-arginine analog (DvLPBaPPP)2LArg6AcLLDo, and chimeric Lym-1 (chLym-1) to Raji cells. All steps were performed at 20° C., unless indicated.
Four million Raji cells (>92% viability) in log phase growth were pelleted at 300×g, washed, and blocked for 30 min in 1 ml of 1% fraction V BSA in PBS, with constant rotation. Cells were then incubated 1 hr, at 1 million per 250 μl, with either 1% BSA in PBS or a biotinylated primary reagent: 10 nM chLym-1, 10 μM parent SHAL, or 10 μM hexa-arginine SHAL. After four washes (two in 1% BSA in PBS, two in PBS), 50 μl of the cell suspensions was applied to freshly poly-L-Lysine coated slides, and cells were allowed to adhere for 10 min in a humid chamber. Fixation and permeabilization were performed at −20° C. by using a 4 min exposure to methanol. Jurkat's cells were treated in the same manner as a control.
Slides were then washed twice in PBS and blocked in 10% fetaplex serum (Gemini Bioproducts, West Sacramento, Calif.) in PBS for 15 min and washed once in PBS. The detection reagent, Streptavidin AlexaFluor 610 (Invitrogen, Carlsbad, Calif.) was diluted 1/500 in diluent, 100 μl was applied; a parafilm cover slip was layered over the solution to prevent evaporation. The slides were incubated in a humid chamber for 30 min., washed 5 times for 5 min each in PBS, and rinsed briefly in double distilled H2O. After the slides dried, cover slips were mounted with ProlongGold with 4′,6-diamidino-2-phenylindole (DAPI, Invitrogen, Carlsbad, Calif.). The slides were viewed with an Olympus FV1000 laser scanning confocal microscope and data were collected as Z-scans at 160×, with focal sections being taken 1 μm apart through the cell.

Jurkat's xenografts = test: Efficacy in mice with Jurkat's xenografts; assay type: in vivo, athymic Balb/c nu/nu mice
Description: Seven- to nine-week old female, athymic Balb/c nu/nu mice (Harlan Sprague Dawley, Inc., Frederick, Md.) were maintained according to University of California animal care guidelines under pathogen-free conditions and on a normal ad libitum diet. Raji or Jurkat's cells harvested in log phase and having >95% viability were implanted (6×10^6 cells) subcutaneously in the lower abdomen 3-4 days after the mice were irradiated (400 cGy) to suppress xenograft rejection. When xenografts reached 20-500 mm3 by caliper measurement, the mice were sorted by xenograft volume into 4 groups: SHAL-treated mice with Raji xenografts, SHAL-treated mice with Jurkat's xenografts, untreated mice with Raji xenografts or untreated mice with Jurkat's xenografts. Each mouse was injected with 100 μl of PBS or 100 ng DOTA-chelated tridentate SHAL i.p. on days 0, 7 and 14. Xenograft volume and survival were monitored for ≥84 days. The mice were also weighed 2-3 times each week for 4 weeks then weekly. Blood counts were measured prior to each SHAL or PBS dose and weekly for 4 weeks after the final dose using a Z Series Coulter Counter (Beckman Coulter Inc., Hialeah, Fla.) and a phase contrast microscope (Zeiss, Jena, Germany).
Xenograft volumes were calculated by the formula for hemiellipsoids (DeNardo et al. (1997) Clin. Cancer Res. 3: 71-79). […] If a xenograft became >2000 mm3, the mouse was euthanized in accordance with University of California animal care guidelines and scored as a disease-related death.
Initial analysis compared response rates by exact tests and survival times by log-rank tests for untreated Raji and Jurkat's mice and found no significant differences, so these groups were pooled for subsequent analysis. Response rates for treated Raji, treated Jurkat's and untreated mice were compared by x^2 and exact tests. Survival times were censored at 84 days for mice who had not died or been euthanized because of tumor growth before that time. Times were summarized descriptively by Kaplan-Meier curves and median survival and 95% confidence limits were obtained by the product-limit estimate. The two treated groups were compared to the untreated using a log-rank test for homogeneity across groups, followed by a proportional hazards model to estimate the effect of treatment compared to no treatment. Analyses were carried out using SAS/SAT® software (SAS Institute, Inc. SAS/STAT Version 9.0. 2004. Cary, N.C.: SAS Institute). All tests were two-sided at level 0.05.

[2] = system: Raji human HLA-DR10 expressing lymphoma cells; test: Cytotoxicity assay (trypan blue) in Raji cell culture; assay type: cell-based
Description: Raji cells harvested in log growth phase were centrifuged, resuspended in fresh media and counted in 10% trypan-blue dye to determine initial and subsequent viability, as previously described (West et al. (2006) Cancer Biother. Radiopharm., 21: 645-654). When untreated, cells continued to multiply and nonviable cells, initially <5% of total cells, remained so over the course of the assays. To titrate cytotoxic activity, biotinylated tridentate SHAL at concentrations ranging between 0 and 7 nM (pm/ml media) was incubated with 0.5×10^6 cells/ml at 37° C. in a 5% CO2, humidified atmosphere (NAPCO, Portland, Oreg.). After 1, 2 and 3 days, cells were resuspended in trypan blue dye and counted in a hemocytometer. The fractional viability and absolute number of viable and non-viable cells/ml were determined.

[3] = 100 ng DOTA-chelated tridentate SHAL i.p. days 0, 7 and 14

SMILES	degradation in human plasma [1]	SHAL binding, uptake and localization in Raji cells (Raji cells)	SHAL binding, uptake and localization in Raji cells (Raji cells; listed as hexa-arginine SHAL)	SHAL binding, uptake and localization in Raji cells (Raji cells; listed as hexa-arginine SHAL analog)	SHAL binding, uptake and localization in Raji cells (Raji cells; listed as hexa-arginine analog)	Cure (Jurkat's xenografts; [3]) [%]	ORR (overall response rate) (Jurkat's xenografts; [3]) [%]	longest survival (FIG. 31) (Jurkat's xenografts; 100 ng SHAL i.p. once weekly for 3 consecutive weeks) [days]	effect of SHAL treatment on Jurkat's xenografts (Jurkat's xenografts; mouse, in vivo)	median survival time (Jurkat's xenografts; treated mice with Jurkat's xenografts) [days]	threshold concentration for cytotoxic activity ([2]; Raji cell culture) [nM]	pIC50 ([2]; Raji cell culture, read-out: IC50 concentration for cytotoxic activity)	threshold SHAL cytotoxic concentration ([2]; biotinylated tridentate SHAL, determined at 2 days)	pIC50 ([2]; biotinylated tridentate SHAL, determined at 2 days, read-out: IC50 SHAL cytotoxic concentration)
CC(=O)NC(CCCNC(=N)N)C(=O)NC(CCCNC(=N)N)C(=O)NC(CCCNC(=N)N)C(=O)NC(CCCNC(=N)N)C(=O)NC(CCCNC(=N)N)C(=O)NC(CCCNC(=N)N)C(=O)NCCCCC(NC(=O)C(CCCCNC(=O)COCCOCCNC(=O)COCCOCCNC(=O)COCCOCCNC(=O)C(CCCCNC(=O)COCCOCCNC(=O)c1ccc(NC(=O)C(CCCNC(=N)N)NC(=O)c2ccccc2)cc1)NC(=O)C(NS(=O)(=O)c1ccc(N=Nc2ccc(N(C)C)cc2)cc1)C(C)C)NC(=O)COCCOCCNC(=O)COCCOCCNC(=O)COCCOCCNC(=O)C(CCCCNC(=O)COCCOCCNC(=O)c1ccc(NC(=O)C(CCCNC(=N)N)NC(=O)c2ccccc2)cc1)NC(=O)C(NS(=O)(=O)c1ccc(N=Nc2ccc(N(C)C)cc2)cc1)C(C)C)C(=O)NC(CCCCNC(=O)CN1CCN(CC(=O)O)CCN(CC(=O)O)CCN(CC(=O)O)CC1)C(=O)O (centres unmarked) [(DvLPBaPPP)2LArg6AcLLDo]	no evidence of degradation	internalized	localized in the nucleus; also recorded: significantly more; also recorded: associated with the nucleus	associated with the nucleus	marked cytoplasmic binding but also intranuclear targeting; also recorded: taken up and internalized	–	–	–	–	–	–	–	–	–
CC(C)C(NS(=O)(=O)c1ccc(N=Nc2ccc(N(C)C)cc2)cc1)C(=O)NCCOCCOCC(=O)NC(CCCCNC(=O)C(CCCCNC(=O)CC(=O)Nc1ccccc1Oc1ncc(C(F)(F)F)cc1Cl)NC(=O)COCCOCCNC(=O)c1ccc(N2CCN(Cc3ccc(Cl)cc3)CC2)c([N+](=O)[O-])c1)C(=O)NCCOCCOCC(=O)NC(CCCCNC(=O)CN1CCN(CC(=O)O)CCN(CC(=O)O)CCN(CC(=O)O)CC1)C(=O)O (centres unmarked) [tridentate SHAL]	–	–	–	–	–	0	0	≤ 56	not affected	21	0.7	8.60	0.7 nM (pm/ml media)	8.60
